# Data reported in PMC12384225, “Piezo1 Channel Activators Yoda1 and Yoda2 in the Context of Red Blood Cells” (Biomolecules, 2025).
# Experiments:
# Piezo1 channel = molecular target: T1, Piezo1 channel (Homo sapiens, UniProt Q92508); assay: Automated whole-cell patch clamp (SyncroPatch 384) of Piezo1-mediated currents in RBCs; format: cell-based; details: for responding cells out of total valid cells / responding cells out of total valid cells (any concentration) / concentration at which the response plateaus: +80 mV; for responding cells out of total valid cells (any concentration): current > baseline + 3σ at any concentration, N = 3; for EC50: human RBCs, responders only, current at +80 mV normalised to baseline, cumulative concentrations, Hill fit, room temperature; for concentration at which the response plateaus: normalised concentration-response curves
# T1 construct: endogenous in cells; host or cells: human red blood cells (RBCs) from donor blood
# T1 sequence (Q92508 whole entry): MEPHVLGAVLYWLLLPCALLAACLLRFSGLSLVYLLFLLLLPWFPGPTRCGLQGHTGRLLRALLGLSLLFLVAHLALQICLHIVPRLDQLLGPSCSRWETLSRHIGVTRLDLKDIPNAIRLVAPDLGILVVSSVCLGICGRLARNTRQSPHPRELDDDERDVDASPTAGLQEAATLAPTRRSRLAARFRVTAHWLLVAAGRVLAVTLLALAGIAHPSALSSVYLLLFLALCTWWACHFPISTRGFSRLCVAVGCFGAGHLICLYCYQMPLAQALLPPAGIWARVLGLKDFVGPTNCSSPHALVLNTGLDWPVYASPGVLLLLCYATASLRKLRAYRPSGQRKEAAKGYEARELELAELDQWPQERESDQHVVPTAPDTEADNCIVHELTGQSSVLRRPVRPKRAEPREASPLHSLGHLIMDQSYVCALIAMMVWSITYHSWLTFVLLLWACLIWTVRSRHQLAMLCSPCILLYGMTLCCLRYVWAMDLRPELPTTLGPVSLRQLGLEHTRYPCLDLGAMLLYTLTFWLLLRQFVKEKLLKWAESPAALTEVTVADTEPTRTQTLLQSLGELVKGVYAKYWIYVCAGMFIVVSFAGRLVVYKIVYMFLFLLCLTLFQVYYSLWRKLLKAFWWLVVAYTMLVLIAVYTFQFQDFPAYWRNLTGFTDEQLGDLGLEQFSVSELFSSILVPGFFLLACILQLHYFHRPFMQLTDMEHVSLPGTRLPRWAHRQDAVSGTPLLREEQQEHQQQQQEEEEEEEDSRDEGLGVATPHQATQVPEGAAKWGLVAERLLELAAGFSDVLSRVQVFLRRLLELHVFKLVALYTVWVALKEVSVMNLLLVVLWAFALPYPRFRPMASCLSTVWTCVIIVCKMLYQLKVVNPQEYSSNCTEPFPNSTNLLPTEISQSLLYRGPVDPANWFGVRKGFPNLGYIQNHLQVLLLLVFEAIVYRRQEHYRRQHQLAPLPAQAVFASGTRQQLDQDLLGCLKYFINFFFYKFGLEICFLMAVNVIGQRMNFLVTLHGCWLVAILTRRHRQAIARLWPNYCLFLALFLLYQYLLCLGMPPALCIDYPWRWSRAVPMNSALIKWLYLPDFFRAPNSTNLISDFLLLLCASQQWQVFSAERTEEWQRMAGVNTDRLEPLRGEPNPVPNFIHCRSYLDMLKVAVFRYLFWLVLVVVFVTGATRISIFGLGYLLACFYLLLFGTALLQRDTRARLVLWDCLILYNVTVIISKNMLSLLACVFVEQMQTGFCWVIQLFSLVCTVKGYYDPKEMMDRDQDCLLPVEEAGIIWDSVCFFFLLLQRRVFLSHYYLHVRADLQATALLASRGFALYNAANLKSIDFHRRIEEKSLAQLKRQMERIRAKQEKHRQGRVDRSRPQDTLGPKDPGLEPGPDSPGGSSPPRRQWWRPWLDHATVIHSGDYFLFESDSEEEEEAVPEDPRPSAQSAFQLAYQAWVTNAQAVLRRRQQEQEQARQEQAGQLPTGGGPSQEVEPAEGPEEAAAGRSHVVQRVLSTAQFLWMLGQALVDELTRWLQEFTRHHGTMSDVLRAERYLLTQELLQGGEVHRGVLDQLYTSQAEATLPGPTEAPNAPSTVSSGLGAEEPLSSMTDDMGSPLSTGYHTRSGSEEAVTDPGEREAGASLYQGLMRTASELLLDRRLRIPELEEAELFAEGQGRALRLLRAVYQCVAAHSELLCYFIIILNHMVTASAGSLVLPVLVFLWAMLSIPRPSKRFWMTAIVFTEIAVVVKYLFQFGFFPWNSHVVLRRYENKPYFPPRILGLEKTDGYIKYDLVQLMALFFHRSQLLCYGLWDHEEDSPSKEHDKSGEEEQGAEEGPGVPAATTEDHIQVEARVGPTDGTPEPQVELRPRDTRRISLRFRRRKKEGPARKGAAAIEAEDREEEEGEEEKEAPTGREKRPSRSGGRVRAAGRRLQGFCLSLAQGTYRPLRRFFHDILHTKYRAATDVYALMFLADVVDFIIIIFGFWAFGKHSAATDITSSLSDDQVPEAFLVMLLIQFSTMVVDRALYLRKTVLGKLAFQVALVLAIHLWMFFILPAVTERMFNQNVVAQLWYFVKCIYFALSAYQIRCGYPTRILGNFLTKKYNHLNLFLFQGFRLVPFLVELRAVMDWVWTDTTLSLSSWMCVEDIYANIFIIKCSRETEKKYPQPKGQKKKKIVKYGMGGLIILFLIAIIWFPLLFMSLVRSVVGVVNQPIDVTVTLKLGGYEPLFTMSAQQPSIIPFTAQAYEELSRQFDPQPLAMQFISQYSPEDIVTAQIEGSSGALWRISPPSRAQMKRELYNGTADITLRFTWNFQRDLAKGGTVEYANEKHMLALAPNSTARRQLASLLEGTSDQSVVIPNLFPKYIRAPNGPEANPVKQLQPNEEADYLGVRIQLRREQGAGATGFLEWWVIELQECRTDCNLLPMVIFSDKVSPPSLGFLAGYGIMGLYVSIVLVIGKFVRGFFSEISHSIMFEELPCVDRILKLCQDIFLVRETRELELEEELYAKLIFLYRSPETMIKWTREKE
# Experimental: Whole-cell patch clamp recordings were performed using the SyncroPatch 384 (Nanion Technologies, Munich, Germany) as previously described. Experiments were conducted at room temperature using NPC-384 single-hole microchips with resistances ranging from 6 to 10 MΩ. Recording solutions contained (in mM) 110 KF, 10 KCl, 10 NaCl, 10 EGTA, and 10 HEPES, pH 7.2 (KOH) (internal); and 140 NaCl, 4 KCl, 2 CaCl2, 1 MgCl2, 5 D-glucose monohydrate, and 10 HEPES, pH 7.4 (NaOH) (external). Data acquisition was conducted using PatchControl384 v3.2.2 (Nanion Technologies, Munich, Germany), sampled at 10 kHz.
# Piezo1-mediated currents were elicited using a voltage ramp protocol ranging from −100 mV to +80 mV over 450 ms, applied every 10 s, with a holding potential set at −30 mV. After establishing a stable baseline current in the external solution, cells were exposed to increasing concentrations of either Yoda1 or Yoda2 (Tocris Bioscience, Bristol, UK) in a cumulative manner: 41 nM, 144 nM, 442 nM, 1.33 μM, 4 μM, and 8 μM. To block channel activity, 30 μM GdCl3 (Sigma-Aldrich, Merck KGaA, Taufkirchen, Germany, a non-selective ion channel inhibitor, was subsequently applied.
# RBCs were classified as responders if the mean current amplitude in the presence of the compound exceeded the mean current at baseline conditions by more than three times the standard deviation of the baseline (3σ). For EC50 determination, current amplitudes at each concentration were normalised to the baseline current, and dose–response curves were fitted using the Hill equation.
# [1] = system: membrane potential of RBCs (Gárdos channel activity); assay: Membrane potential measurement (MBE method), hyperpolarisation by Gárdos channel activity; format: cell-based, human; details: magnitude of membrane hyperpolarisation ΔVm, Hill fit
# Experimental: The membrane potential of RBCs was measured using a method originally described by Macey et al., subsequently refined by Poul Bennekou, e.g., [27], and later optimised by the group of Stéphane Egée, e.g., [28]. As such, the method is referred to as the MBE method after the three scientists who most contributed to it. For each experiment, a 2 mL microcentrifuge tube was prepared with 1 mL of Ringer solution containing (in mM) 153 NaCl, 2 KCl, and 4 CaCl2. All reagents were of analytical grade and dissolved in Milli-Q water. Protonophore carbonyl cyanide m-chlorophenyl hydrazone (CCCP) was added at a final concentration of 26 µM to increase the hydrogen permeability of membranes. The tube was placed in a 36 °C water bath, and a magnetic stir bar was added to ensure continuous mixing. A calibrated pH electrode (InLab Expert Pro pH electrode, Mettler-Toledo GmbH, Greifensee, Switzerland) was immersed in the solution to monitor pH changes in real time, with data acquisition and recording performed via software on a connected computer. […] The system was monitored for an additional 5 minutes to observe the effects of the compound on the RBCs. […]
# The membrane potential (Vm) was calculated from the recorded pH data using the following equation:Vm [mV] = −61.5 × (pHval − pHlys), where pHval is the pH value measured at a specific time point, and pHlys is the final pH value obtained after cell lysis.
# [2] = system: free Ca^2+ in healthy red blood cells (RBCs); assay: Intracellular Ca2+ by Fluo-4 flow cytometry in RBCs; format: cell-based, human; details: for EC50: maximum average Fluo-4 intensity of all RBCs during recording, Hill fit, flow cytometry, read-out: EC50 (Ca^2+ Measurements)
# Experimental: Experiments for the intracellular Ca^2+ detection of RBCs were performed in Tyrode solution containing (in mM) 130 NaCl, 5 KCl, 5 glucose, 10 HEPES, 1 MgCl2, and 1.5 CaCl2. The pH was adjusted to 7.40 with NaOH. All salts were of analytical grade. The cells were loaded with Fluo-4 AM (Molecular Probes, Eugene, OR, USA) at a concentration of 5 μM for 1 hour at 37 °C. Then, the cells were washed three times with Tyrode solution.
# Flow cytometry measurements were performed on LSRFortessa (Becton Dickinson, Franklin Lakes, NJ, USA). Washed RBCs from 50 μL of blood were loaded with Fluo-4 as previously described and washed again. For flow cytometry analysis, 10 μL of cell suspension was added to 700 μL of designed buffer and transferred to 5 mL round-bottom polystyrene test tubes (Corning Inc., Corning, NY, USA). For each sample, data recording started 1 minute after the cells were in the designed buffer for 10 minutes. The results were assessed using FlowJo (Becton Dickinson, Franklin Lakes, NJ, USA).
# [3] = system: free Ca^2+ in healthy red blood cells (RBCs); design: method as in PMID 29259557, PMID 33208899; details: cited from earlier work
# [4] = system: membrane potential of RBCs (Gárdos channel activity); design: method as in PMID 37492641; details: RBCs pretreated with the inhibitor; cited from earlier work
Molecule,"block of Piezo1 channel activity (Piezo1 channel; 30 μM, applied after cumulative Yoda1 or Yoda2)",EC50 [1] [nM],Fluo-4 (Ca^2+) response of RBCs ([2]; 40 nM),EC50 [2] [nM],responding cells out of total valid cells (Piezo1 channel; 41 nM),responding cells out of total valid cells (Piezo1 channel; 144 nM),responding cells out of total valid cells (Piezo1 channel; 442 nM),responding cells out of total valid cells (Piezo1 channel; 1330 nM),responding cells out of total valid cells (Piezo1 channel; 4000 nM),responding cells out of total valid cells (Piezo1 channel; 8000 nM),responding cells out of total valid cells (any concentration) (Piezo1 channel),EC50 (Piezo1 channel) [nM],concentration at which the response plateaus (Piezo1 channel),Fluo-4 (Ca^2+) response of RBCs ([2]; 80 nM),inhibition of increased Ca^2+ induced by Yoda1 or mechanical stress [3],inhibition of hyperpolarisation [4]
[Cl][Gd]([Cl])[Cl] [GdCl3],block Piezo1 channel activity completely,–,–,–,–,–,–,–,–,–,–,–,–,–,–,–
Clc1cccc(Cl)c1CSc1nnc(-c2cnccn2)s1 [Yoda1],–,305,no obvious response,1180,2/172,9/172,16/172,26/172,30/172,35/172,35/172,1390,did not plateau,–,–,–
O=C(O)c1ccc(-c2nnc(SCc3c(Cl)cccc3Cl)s2)cc1 [Yoda2],–,465,–,986,3/171,12/171,24/171,30/171,30/171,31/171,35/171,305,around 4 μM,no obvious response,–,–
GsMTx4,–,–,–,–,–,–,–,–,–,–,–,–,–,–,significantly inhibited,largely inhibited
